This is an account of results in US12064412B2 (SUN YAT-SEN UNIVERSITY, priority 2019, dated 2024).

Data set [1] can be described thus: Phase solubility of naringenin with hydroxypropyl β-cyclodextrin in environments of different pH values. It is filed as physicochemical. Conditions: basic pH (8 and 9) versus ultrapure water, same hydroxypropyl β-cyclodextrin concentration (0-16% w/v), 25±1° C., 48 hours. An excerpt: The process of the experimentation on the coating and solubilization of naringenin by hydroxypropyl β-cyclodextrin comprises:
preparing buffer-salt solutions of pH values of 4, 8 and 9 according to the method on a pharmacopoeia, adding different masses of the hydroxypropyl β-cyclodextrin into the buffer-salt solutions of the pH values of 4, 8 and 9 and ultrapure water, to prepare solutions of hydroxypropyl β-cyclodextrin of mass fractions (w/v) of 0, 2, 4, 8 and 16%, adding individually excessive naringenin, shaking in a constant-temperature shaking table at 25±1° C. at 200 rpm for 48 hours, taking out, standing, filtering by using a 0.45 μm microporous filter membranes, removing the primary filtrate, properly diluting the subsequent filtrate, and performing ultraviolet assay.
The detection method comprises, by using ultraviolet-visible spectrophotometry, measuring at the wavelength of 288 nm.
The preparing of a stock solution of the reference substance comprises: precisely weighing an appropriate amount of the naringenin reference substance that has been dried at 105° C. to constant weight, placing in a 10 mL volumetric flask, and dissolving by using methanol to volume, to obtain a stock solution of the reference substance of the concentration of 1 mg/mL. […]

The conditions of data set [2]: oral administration, rat; cited from earlier work.
For data set [3] the following is noted: oral dosage of 21 mg/kg, as reported by documents; cited from earlier work.

Take `O=C1C[C@@H](c2ccc(O)cc2)Oc2cc(O)cc(O)c21` [naringenin]: the “total naringenin concentration in hydroxypropyl β-cyclodextrin solution at basic pH relative to ultrapure water” value in data set [1] is “approximately 3 times”. The “bioavailability, as calculated by the free naringenin” value in data set [2] is listed as “approximately 4%”. For the same molecule, in data set [3], the AUC0-t was 15080.4 ng·min/g and the Tmax (usually the time from dosing to the highest level) was 2 h.
